Assay [1] relates to IL-4 stimulated CD23 upregulation in human Ramos B cells (JAK-1/JAK-3, Stat-6). As to the kind of experiment: Assay for Ramos B-Cell Line Stimulated with IL-4 (CD23 upregulation, FACS). As to conditions: Table III Example 3. In kind it is cell-based. The gist of the method:
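Flow cytometry of CD23 staining after 20-24 h IL-4 stimulation (50 units/mL final) of human Ramos B cells in RPMI with 5% serum. Cells, 5×10^4 per point, received compound or DMSO vehicle for 1 h at 37° C prior to stimulation.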

For assay [2], the system named is primary human T-cells (IL-2 induced proliferation, JAK-1/JAK-3, Stat-5). Description: Primary Human T-Cell Proliferation Assay Stimulated with IL-2 (CellTiter-Glo). The assay is classed as cell-based. As to conditions: Table III Example 4. The essentials:
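Read-out is intracellular ATP luminescence (CellTiter-Glo) after 72 h at 37 °C of IL-2-driven growth. Cells, pre-stimulated via TCR and CD28 then washed free of IL-2, were resuspended in Yssel's medium, given 80 U/mL IL-2 in the cell suspension plus duplicate compound; unstimulated wells lacked IL-2.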
For orientation: In ATP-based viability assays light output follows the ATP content of the culture.

Usually IC50 stands for the concentration needed to halve the response being measured. Lower therefore signals greater potency.

In the case of `C#CCNS(=O)(=O)Cc1ccc(Nc2nc(Nc3cccc(S(N)(=O)=O)c3)ncc2F)cc1` [Compound I-4, N2-(3-Aminosulfonylphenyl)-5-fluoro-N4-[4-(prop-2-ynylaminosulfonylmethyl)phenyl]-2,4-pyrimidinediamine], the half-inhibitory concentration (IC50) in assay [1] (Homo sapiens, Ramos) came to 141 nM; in assay [2] (Homo sapiens, T-cell) it was 109 nM.
Consider `C#CCNS(=O)(=O)Cc1ccc(Nc2nc(Nc3ccc(C)c(S(N)(=O)=O)c3)ncc2F)cc1` [Compound I-5, N2-(3-Aminosulfonyl-4-methylphenyl)-5-fluoro-N4-[4-(prop-2-ynylaminosulfonylmethyl)phenyl]-2,4-pyrimidinediamine], for which the IC50 in assay [1] (Homo sapiens, Ramos) was determined as 130 nM; in assay [2] (Homo sapiens, T-cell), 120 nM.
In the case of `CCS(=O)(=O)NCc1ccc(Nc2nc(Nc3ccc(C)c(S(N)(=O)=O)c3)ncc2F)cc1` [Compound I-10, N2-(3-aminosulfonyl-4-methyl)phenyl-N4-(4-ethylsulfonylaminomethyl)phenyl-5-fluoro-2,4-pyrimidinediamine], the IC50 in assay [1] was found to be 94 nM; in assay [2], 60.6 nM.
The corresponding values for `CCS(=O)(=O)NCc1cccc(Nc2nc(Nc3cccc(S(N)(=O)=O)c3)ncc2F)c1` [Compound I-12, N2-(3-aminosulfonyl)phenyl-N4-(3-ethylsulfonylaminomethyl)phenyl-5-fluoro-2,4-pyrimidinediamine] are 170 nM and 158 nM.
The corresponding values for `CCS(=O)(=O)NCc1cccc(Nc2nc(Nc3ccc(C)c(S(N)(=O)=O)c3)ncc2F)c1` [Compound I-13, N2-(3-aminosulfonyl-4-methyl)phenyl-N4-(3-ethylsulfonylaminomethyl)phenyl-5-fluoro-2,4-pyrimidinediamine] are 136 nM and 197 nM.
The corresponding values for `CCS(=O)(=O)NCCc1ccc(Nc2nc(Nc3ccc(C)c(S(N)(=O)=O)c3)ncc2F)cc1` [Compound I-16, N2-(3-aminosulfonyl-4-methyl)phenyl-N4-[4-(2-ethylsulfonylamino)ethyl]phenyl-5-fluoro-2,4-pyrimidinediamine] are 148 nM and 536 nM.
Regarding `CCS(=O)(=O)NCc1ccc(Nc2nc(Nc3cccc(S(N)(=O)=O)c3)ncc2C)cc1` [Compound I-21, N2-(3-aminosulfonyl)phenyl-N4-(4-ethylsulfonylaminomethyl)phenyl-5-methyl-2,4-pyrimidinediamine], the figures for the IC50 in assay [1] and in assay [2] were 81.2 nM and 58.9 nM, respectively.
As to `CCS(=O)(=O)N[C@@H](C)c1ccc(Nc2nc(Nc3cccc(S(N)(=O)=O)c3)ncc2F)cc1` [Compound I-27, N2-(3-aminosulfonyl)phenyl-N4-[4-(1S-ethylsulfonylamino)ethyl]phenyl-5-fluoro-2,4-pyrimidinediamine], the concentration for half-maximal inhibition (IC50) was found to be 118 nM in assay [1] and 144 nM in assay [2].
`CCS(=O)(=O)N[C@H](C)c1ccc(Nc2nc(Nc3cccc(S(N)(=O)=O)c3)ncc2F)cc1` [Compound I-30, N2-(3-aminosulfonyl)phenyl-N4-[4-(1R-ethylsulfonylamino)ethyl]phenyl-5-fluoro-2,4-pyrimidinediamine]: the results for the IC50 in assay [1] and in assay [2] were 74.3 nM and 153 nM, respectively.
The corresponding values for `Cc1ccc(Nc2ncc(F)c(Nc3cccc(CNS(=O)(=O)C4CC4)c3)n2)cc1S(N)(=O)=O` [Compound I-34, N2-(3-aminosulfonyl-4-methyl)phenyl-N4-(3-cyclopropylsulfonylaminomethyl)phenyl-5-fluoro-2,4-pyrimidinediamine] are 184 nM and 484 nM.
For `Cc1ccc(Nc2ncc(F)c(Nc3ccc(CNS(=O)(=O)c4cccs4)cc3)n2)cc1S(N)(=O)=O` [Compound I-37, N2-(3-aminosulfonyl-4-methyl)phenyl-5-fluoro-N4-[4-(thiophen-2-yl)sulfonylaminomethyl]phenyl-2,4-pyrimidinediamine] the same measures were 46.2 nM and 152 nM.
In the case of `CCS(=O)(=O)NCCc1ccc(Nc2nc(Nc3cccc(S(N)(=O)=O)c3)ncc2C)cc1` [Compound I-39, N2-(3-aminosulfonyl)phenyl-N4-[4-(2-ethylsulfonylamino)ethyl]phenyl-5-methyl-2,4-pyrimidinediamine], the IC50 stood at 46.2 nM in assay [1] and 58 nM in assay [2].
For `CCS(=O)(=O)NCCc1ccc(Nc2nc(Nc3ccc(C)c(S(N)(=O)=O)c3)ncc2C)cc1` [Compound I-40, N2-(3-aminosulfonyl-4-methyl)phenyl-N4-[4-(2-ethylsulfonylamino)ethyl]phenyl-5-methyl-2,4-pyrimidinediamine] the same measures were 68.1 nM and 92.4 nM.
For `Cc1ccc(Nc2ncc(C)c(Nc3ccc(CNS(=O)(=O)C4CC4)cc3)n2)cc1S(N)(=O)=O` [Compound I-47, N2-(3-aminosulfonyl-4-methyl)phenyl-N4-(4-cyclopropylsulfonylaminomethyl)phenyl-5-methyl-2,4-pyrimidinediamine] the same measures were 28 nM and 36.2 nM.
On to `NS(=O)(=O)c1ccc(Nc2ncc(F)c(Nc3ccc(CNS(=O)(=O)CC(F)(F)F)cc3)n2)cc1` [Compound I-48, N2-(4-aminosulfonyl)phenyl-5-fluoro-N4-(4-trifluoroethylsulfonylaminomethyl)phenyl-2,4-pyrimidinediamine], for which the IC50 was found to be 263 nM in assay [1] and 758 nM in assay [2].
For the compound `NS(=O)(=O)c1cccc(Nc2ncc(F)c(Nc3ccc(CNS(=O)(=O)CC(F)(F)F)cc3)n2)c1` [Compound I-49, N2-(3-aminosulfonyl)phenyl-5-fluoro-N4-(4-trifluoroethylsulfonylaminomethyl)phenyl-2,4-pyrimidinediamine], the concentration for half-maximal inhibition (IC50) in assay [1] came to 46.8 nM; in assay [2] it was 38.3 nM.
For `Cc1ccc(Nc2ncc(F)c(Nc3ccc(CNS(=O)(=O)CC(F)(F)F)cc3)n2)cc1S(N)(=O)=O` [Compound I-50, N2-(3-aminosulfonyl-4-methyl)phenyl-5-fluoro-N4-(4-trifluoroethylsulfonylaminomethyl)phenyl-2,4-pyrimidinediamine] the same measures were 34.3 nM and 62.7 nM.
The corresponding values for `Cc1cnc(Nc2cccc(S(N)(=O)=O)c2)nc1Nc1cccc(CNS(=O)(=O)C2CC2)c1` [Compound I-51, N2-(3-aminosulfonyl)phenyl-N4-(3-cyclopropylsulfonylaminomethyl)phenyl-5-methyl-2,4-pyrimidinediamine] are 62.2 nM and 29.7 nM.
Turning to `Cc1ccc(Nc2ncc(C)c(Nc3cccc(CNS(=O)(=O)C4CC4)c3)n2)cc1S(N)(=O)=O` [Compound I-52, N2-(3-aminosulfonyl-4-methyl)phenyl-N4-(3-cyclopropylsulfonylaminomethyl)phenyl-5-methyl-2,4-pyrimidinediamine], the IC50 in assay [1] is 68.5 nM; in assay [2] it was 66.2 nM.
The corresponding values for `Cc1cnc(Nc2cccc(S(N)(=O)=O)c2)nc1Nc1ccc(CCNS(=O)(=O)C2CC2)cc1` [Compound I-54, N2-(3-aminosulfonyl)phenyl-N4-[4-(2-cyclopropylsulfonylamino)ethyl]phenyl-5-methyl-2,4-pyrimidinediamine] are 94.3 nM and 47 nM.
For `Cc1ccc(Nc2ncc(C)c(Nc3ccc(CCNS(=O)(=O)C4CC4)cc3)n2)cc1S(N)(=O)=O` [Compound I-55, N2-(3-aminosulfonyl-4-methyl)phenyl-N4-[4-(2-cyclopropylsulfonylamino)ethyl]phenyl-5-methyl-2,4-pyrimidinediamine] the same measures were 78.8 nM and 84.5 nM.
`Cc1ccc(Nc2ncc(F)c(Nc3ccc(CNS(=O)(=O)C(C)C)cc3)n2)cc1S(N)(=O)=O` [Compound I-67, N2-(3-aminosulfonyl-4-methyl)phenyl-5-fluoro-N4-(4-isopropylsulfonylaminomethyl)phenyl-2,4-pyrimidinediamine]: the IC50 stood at 82.4 nM in assay [1] and 84.5 nM in assay [2].
The corresponding values for `NS(=O)(=O)c1ccc(Nc2ncc(F)c(Nc3ccc(CNS(=O)(=O)C4CCCC4)cc3)n2)cc1` [Compound I-68, N2-(4-aminosulfonyl)phenyl-N4-(4-cyclopentylsulfonylaminomethyl)phenyl-5-fluoro-2,4-pyrimidinediamine] are 94 nM and 102 nM.
For `NS(=O)(=O)c1cccc(Nc2ncc(F)c(Nc3ccc(CNS(=O)(=O)C4CCCC4)cc3)n2)c1` [Compound I-69, N2-(3-aminosulfonyl)phenyl-N4-(4-cyclopentylsulfonylaminomethyl)phenyl-5-fluoro-2,4-pyrimidinediamine] the same measures were 51.5 nM and 50 nM.
The corresponding values for `Cc1ccc(Nc2ncc(F)c(Nc3ccc(CNS(=O)(=O)C4CCCC4)cc3)n2)cc1S(N)(=O)=O` [Compound I-70, N2-(3-aminosulfonyl-4-methyl)phenyl-N4-(4-cyclopentylsulfonylaminomethyl)phenyl-5-fluoro-2,4-pyrimidinediamine] are 43 nM and 150 nM.
For `NS(=O)(=O)c1ccc(Nc2ncc(F)c(Nc3ccc(CNS(=O)(=O)C4CCCCC4)cc3)n2)cc1` [Compound I-71, N2-(4-aminosulfonyl)phenyl-N4-(4-cyclohexylsulfonylaminomethyl)phenyl-5-fluoro-2,4-pyrimidinediamine], the results for the IC50 in assay [1] and in assay [2] were 120 nM and 132 nM, respectively.
The corresponding values for `NS(=O)(=O)c1cccc(Nc2ncc(F)c(Nc3ccc(CNS(=O)(=O)C4CCCCC4)cc3)n2)c1` [Compound I-72, N2-(3-aminosulfonyl)phenyl-N4-(4-cyclohexylsulfonylaminomethyl)phenyl-5-fluoro-2,4-pyrimidinediamine] are 56.9 nM and 25.1 nM.

These data come from patent US9481654B2, “Compositions and methods for inhibition of the JAK pathway” (Rigel Pharmaceuticals, Inc., priority 2006, dated 2016).
